Molecules are shown by their SMILES. “Also recorded” adds a separate entry of the source.

Assay [1] in a line: Evaluation of bile stones dissolution capacity. The settings on record: 0.5% UDCA, 37° C. with constant movement, 120 hours, bile stone weights measured every 24 hours; compared with water, EDTA, MTBE, Paclitaxel, Gemcitabine. Here is the method: Pigment bile stones were stored in water, 1% ethylenediaminetetraacetic acid (EDTA), 0.5% ursodeoxycholic acid (UDCA), 99% methyl tert-butyl ether (MTBE), 20 μg/ml of Paclitaxel, and 200 uM of Gemcitabine, observed for 120 hours at 37° C. with constant movement, and the weights of the bile stones were measured every 24 hours to evaluate bile stone dissolution capacity (FIG. 1).

Assay [2] relates to human chemically derived hepatic progenitors (hCdHs). The assay can be described thus: Differentiation of hCdHs into cholangiocytes (hCdH-Chols) on ABD. Format: cell-based. An excerpt:
In manufacturing a 3D artificial bile duct disclosed in the present specification, cholangiocytes (hCdH-Chols) derived from human chemically derived hepatic progenitors (hCdHs) were used. Because primary cholangiocytes from humans and other mammals are difficult to isolate and propagate in vitro, human chemically derived hepatic progenitors (hCdHs) were utilized for biliary epithelium modeling. To generate hCdHs, human adult hepatocytes isolated from healthy donor livers were directly reprogrammed into bi-potent progenitors through combinatorial treatment with two small molecules, A83-01 and CHIR99021, in the presence of a hepatocyte growth factor (HGF) as described in a recent publication (Y. Kim, K. Kang, S. B. Lee, D. Seo, S. Yoon, […]. Jang, Y. K. Jung, K. G. Lee, V. M. Factor, J. Jeong, D. Choi, J Hepatol 2019, 70, 97.). A cholangiocyte differentiation protocol was applied when hCdHs reached a passage 3. The hCdHs cultured for 14 days in a cholangiocyte differentiation medium comprising Na-taurocholate (100 uM) and CHIR99021 ([…]) in the presence of a HGF for hCdH-Chols differentiation. The ABDs comprising the inner fibrous layer electrospun using 21 G and 27 G needles by the method of Example 2 were treated with UDCA, and after 50 days, whether differentiation into cholangiocytes using human chemically derived hepatic progenitors (hCdHs) is promoted was evaluated. As a control group, a 3D ABD untreated with UDCA was compared.

On to `C[C@H](CCC(=O)O)[C@H]1CC[C@H]2[C@@H]3[C@@H](O)C[C@@H]4C[C@H](O)CC[C@]4(C)[C@H]3CC[C@]12C` [UDCA, ursodeoxycholic acid], for which the “bile stone dissolution capacity” value in assay [1] was “dissolved the most; also recorded: significantly increased compared to other solvents”. For the same molecule, the “differentiation of hepatic progenitors (hCdHs) into cholangiocytes (hCdH-Chols)” value in assay [2] (ABD treated with UDCA, after 50 days, vs 3D ABD untreated with UDCA) is listed as “promoted differentiation”. Besides, in assay [2] (UDCA present in inner fibrous layer of ABD vs 3D ABD untreated with UDCA), the “attachment of cells to the bile ducts by nanofibers of the inner fibrous layer” value is “better attached cells to the bile ducts”. Further, the “expression of cholangiocyte markers in hCdH-Chols” value in assay [2] (after a period of differentiation) was “high levels”.

(Values after patent US20250229006A1, “3D PRINTED ARTIFICIAL BILE DUCTS AND MANUFACTURING METHOD THEREOF” (IUCF-HYU (INDUSTRY-UNIVERSITY COOPERATION FOUNDATION …, priority 2024, published 2025).)
